# Experimental data published in patent US11279681B2, “3-alkyl bicyclic [4,5,0] hydroxamic acids as HDAC inhibitors” (Valo Health, Inc., priority 2015, dated 2022).
# Target: T1, HDAC6 (Homo sapiens, UniProt Q9UBN7)
# T1 sequence (Q9UBN7 1-1215): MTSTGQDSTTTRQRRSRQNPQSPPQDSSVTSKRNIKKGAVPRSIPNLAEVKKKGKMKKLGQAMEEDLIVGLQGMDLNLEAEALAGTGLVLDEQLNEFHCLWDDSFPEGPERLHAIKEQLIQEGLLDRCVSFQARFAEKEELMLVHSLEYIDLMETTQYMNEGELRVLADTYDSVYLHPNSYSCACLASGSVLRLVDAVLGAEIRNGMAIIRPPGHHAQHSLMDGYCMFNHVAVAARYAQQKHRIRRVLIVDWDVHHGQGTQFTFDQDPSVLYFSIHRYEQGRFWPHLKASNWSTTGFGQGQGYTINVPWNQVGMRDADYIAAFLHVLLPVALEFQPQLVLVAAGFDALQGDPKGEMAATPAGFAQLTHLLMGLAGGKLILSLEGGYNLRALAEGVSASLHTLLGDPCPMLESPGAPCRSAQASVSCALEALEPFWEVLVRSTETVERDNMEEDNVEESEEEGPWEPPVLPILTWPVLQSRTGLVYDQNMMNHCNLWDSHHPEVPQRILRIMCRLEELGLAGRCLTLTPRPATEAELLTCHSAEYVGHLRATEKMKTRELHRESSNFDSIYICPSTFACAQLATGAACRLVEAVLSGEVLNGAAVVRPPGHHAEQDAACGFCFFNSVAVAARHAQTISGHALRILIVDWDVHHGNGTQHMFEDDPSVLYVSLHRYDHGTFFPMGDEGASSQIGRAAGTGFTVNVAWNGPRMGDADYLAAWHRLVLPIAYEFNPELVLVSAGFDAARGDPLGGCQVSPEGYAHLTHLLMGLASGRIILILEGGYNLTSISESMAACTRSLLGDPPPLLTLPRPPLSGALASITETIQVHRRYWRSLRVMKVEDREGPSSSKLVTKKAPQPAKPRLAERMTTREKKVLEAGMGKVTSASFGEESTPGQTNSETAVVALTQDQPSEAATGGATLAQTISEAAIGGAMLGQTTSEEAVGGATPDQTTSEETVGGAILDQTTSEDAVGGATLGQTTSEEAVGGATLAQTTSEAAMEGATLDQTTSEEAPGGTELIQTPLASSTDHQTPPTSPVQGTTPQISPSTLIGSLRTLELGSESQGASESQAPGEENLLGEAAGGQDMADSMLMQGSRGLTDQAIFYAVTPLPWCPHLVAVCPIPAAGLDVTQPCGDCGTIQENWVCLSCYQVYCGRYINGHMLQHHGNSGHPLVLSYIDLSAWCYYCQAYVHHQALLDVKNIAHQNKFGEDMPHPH
# Assay: In vitro histone deacetylase assay: enzymatic HDAC6 electrophoretic mobility shift assay
# Type: biochemical
# Settings: full length human recombinant HDAC6, 1 nM enzyme, 2 μM peptide substrate RHKK(Ac)-NH2, 25° C.; read-out: Inhibitory Concentration (IC50) Values for Representative Compounds against HDAC6, Activity Range
# Experimental: The enzymatic HDAC6 assay was performed using electrophoretic mobility shift assay. […] The enzymatic reactions were assembled in 384 well plates in a total volume of 25 μL in a reaction buffer composing: 100 mM HEPES, pH7.5, 25 mM KCl, 0.1% bovine serum albumin, 0.01% Triton X-100, 1% DMSO (from compounds) 2 μM of the fluorescently labeled peptide substrate and enzyme. The enzyme was added at a final concentration of 1 nM. The peptide substrate RHKK(Ac)-NH2 was used. The compounds were tested at 12 concentrations spaced by 3× dilution intervals. Negative control samples (0%-inhibition in the absence of inhibitor) and positive control samples (100%-inhibition) were assembled in replicates of four in each assay plate. The reactions were incubated at 25° C. and quenched by the addition of 45 μL of termination buffer (100 mM HEPES, pH 7.5, 0.01% Triton X-100, 0.05% SDS).
# The terminated assay plates were analyzed on LabChip® 3000 microfluidic electrophoresis instrument (Perkin Elmer/Caliper Life Sciences). The fluorescence intensity of the electrophoretically separated de-acetylated product and substrate peptide was measured. Activity in each sample was determined as the product to sum ratio (PSR): P/(S+P), where P is the peak height of the product peptide and S is the peak height of the substrate peptide. Percent inhibition (Pinh) is determined using the following equation:
# Pinh=(PSR0%−PSRinh)/(PSR0%−PSR100%)*100, where PSRinh is the product sum ratio in the presence of inhibitor, PSR0% is the average product sum ration in the absence of inhibitor and PSR100% is the average product sum ratio in 100%-inhibition control samples. The IC50 values of inhibitors were determined by fitting the %-inhibition curves with 4 parameter dose-response model using XLfit 4 software.
row,Compound,IC50 [nM]
1,O=C(NO)c1ccc2c(c1)S(=O)(=O)N(Cc1ccccc1)CCO2,100 to 500
2,O=C(NO)c1ccc2c(c1)OCCN(Cc1ccccc1)S2(=O)=O,> 500
3,O=C(NO)c1ccc2c(c1)OCCN(c1nc3ccccc3[nH]1)C2,≤ 100
4,O=C(NO)c1ccc2c(c1)CN(c1nc3ccccc3[nH]1)CCO2,100 to 500
5,O=C1CN(Cc2nc3ccccc3[nH]2)Cc2cc(C(=O)NO)ccc2N1,≤ 100
6,O=C1CN(Cc2nc3ccccc3[nH]2)Cc2ccc(C(=O)NO)cc2N1,100 to 500
7,O=C(NO)c1ccc2c(c1)CN(Cc1nc3ccccc3[nH]1)CCO2,> 500
8,O=C(NO)c1ccc2c(c1)OCCN(Cc1nc3ccccc3[nH]1)C2,≤ 100
9,O=C(NO)c1ccc2c(c1)OCCN(c1nc3ccccc3s1)C2,100 to 500
10,O=C(NO)c1ccc2c(c1)OCCN(c1ccc(Cl)c(Cl)c1)C2,100 to 500
11,N#Cc1ccc(N2CCOc3cc(C(=O)NO)ccc3C2)cc1C(F)(F)F,100 to 500
12,CC(=O)N1CCCC(CN2CC(=O)Nc3ccc(C(=O)NO)cc3C2)C1 (centres unmarked),> 500
13,O=C1CN(Cc2coc(-c3cccc(F)c3)n2)Cc2cc(C(=O)NO)ccc2N1,≤ 100
14,O=C1CN(Cc2ccccc2Cl)Cc2cc(C(=O)NO)ccc2N1,100 to 500
15,COc1ccc(CN2CC(=O)Nc3ccc(C(=O)NO)cc3C2)c(F)c1,≤ 100
16,O=C1CN(Cc2cccc3c2OC(F)(F)O3)Cc2cc(C(=O)NO)ccc2N1,≤ 100
17,O=C1CN(Cc2cc(F)ccc2F)Cc2cc(C(=O)NO)ccc2N1,100 to 500
18,CN(C)Cc1cccc(CN2CC(=O)Nc3ccc(C(=O)NO)cc3C2)c1,> 500
19,O=C1CN(Cc2cccc(Cl)c2)Cc2cc(C(=O)NO)ccc2N1,100 to 500
20,O=C1CN(Cc2cc(Cl)cc(Cl)c2)Cc2cc(C(=O)NO)ccc2N1,≤ 100
21,O=C1CN(Cc2cc(F)cc(F)c2)Cc2cc(C(=O)NO)ccc2N1,100 to 500
22,O=C1CN(Cc2ccc(Cl)cc2)Cc2cc(C(=O)NO)ccc2N1,≤ 100
23,N#Cc1ccc(CN2CC(=O)Nc3ccc(C(=O)NO)cc3C2)cc1,100 to 500
24,O=C(NO)c1ccc2c(c1)OCCN(CC1CCCCC1)C2,100 to 500
25,O=C1CN(CC2CC2)Cc2cc(C(=O)NO)ccc2N1,100 to 500
26,CC(c1ccccc1)N1CC(=O)Nc2ccc(C(=O)NO)cc2C1 (centres unmarked),≤ 100
27,O=C1CN(Cc2nccs2)Cc2cc(C(=O)NO)ccc2N1,> 500

row,Compound,IC50 [nM]
1,O=C1CN(Cc2ccccc2OC(F)(F)F)Cc2cc(C(=O)NO)ccc2N1,≤ 100
2,O=C1CN(Cc2cccc(OC(F)(F)F)c2)Cc2cc(C(=O)NO)ccc2N1,100 to 500
3,O=C1CN(Cc2cccc(Oc3ccccc3)c2)Cc2cc(C(=O)NO)ccc2N1,100 to 500
4,O=C1CN(Cc2ccc(-n3cccn3)cc2)Cc2cc(C(=O)NO)ccc2N1,≤ 100
5,CC(C)c1ccc(CN2CC(=O)Nc3ccc(C(=O)NO)cc3C2)cc1,≤ 100
6,CC(C)Oc1ccc(CN2CC(=O)Nc3ccc(C(=O)NO)cc3C2)cc1,≤ 100
7,O=C1CN(Cc2ccc(-c3ccccn3)cc2)Cc2cc(C(=O)NO)ccc2N1,≤ 100
8,O=C1CN(Cc2ccc(OC(F)(F)F)cc2)Cc2cc(C(=O)NO)ccc2N1,100 to 500
9,O=C1CN(Cc2ccc(Oc3ccccc3)cc2)Cc2cc(C(=O)NO)ccc2N1,≤ 100
10,CC(C)c1ccc(CN2CC(=O)Nc3ccc(C(=O)NO)cc3C2)nc1,100 to 500
11,O=C1CN(CC2CCOC2)Cc2cc(C(=O)NO)ccc2N1 (centres unmarked),> 500
12,O=C1CN(Cc2ccccn2)Cc2cc(C(=O)NO)ccc2N1,> 500
13,O=C1CN(Cc2cccnc2)Cc2cc(C(=O)NO)ccc2N1,100 to 500
14,O=C1CN(Cc2ccncc2)Cc2cc(C(=O)NO)ccc2N1,100 to 500
15,O=C1CN(Cc2cncnc2)Cc2cc(C(=O)NO)ccc2N1,> 500
16,COCCn1c(N2CCOc3ccc(C(=O)NO)cc3C2)nc2ccccc21,100 to 500
17,COCCn1c(N2CCOc3cc(C(=O)NO)ccc3C2)nc2ccccc21,≤ 100
18,COc1ccc(CCN2CC(=O)Nc3ccc(C(=O)NO)cc3C2)cc1,100 to 500
19,COc1ccc(CCN2CCOc3ccc(C(=O)NO)cc3C2)cc1,> 500
20,COc1ccc(CCN2CCOc3cc(C(=O)NO)ccc3C2)cc1,100 to 500
21,COc1ccc(CCN2CCOc3cc(C(=O)NO)ccc3C2=O)cc1,100 to 500
22,COc1ccc(S(=O)(=O)N2CC(=O)Nc3ccc(C(=O)NO)cc3C2)cc1,> 500
23,COc1ccc(S(=O)(=O)N2CCOc3cc(C(=O)NO)cnc3C2)cc1,100 to 500
24,COc1ccc(S(=O)(=O)N2CCOc3nc(C(=O)NO)ccc3C2)cc1,> 500
25,COc1ccc(S(=O)(=O)N2CCOc3ccc(C(=O)NO)cc3C2)cc1,100 to 500
26,COc1ccc(S(=O)(=O)N2CCOc3cc(C(=O)NO)ccc3C2)cc1,100 to 500
27,COc1ccc(CN2CC(=O)N(C)c3ccc(C(=O)NO)cc3C2)cc1,> 500

row,Compound,IC50 [nM]
1,COCCn1c(CN2CCOc3cc(C(=O)NO)ccc3C2)nc2ccccc21,100 to 500
2,COCCn1c(CN2CCOc3ccc(C(=O)NO)cc3C2)nc2ccccc21,> 500
3,Cn1ccnc1CN1CC(=O)Nc2ccc(C(=O)NO)cc2C1,100 to 500
4,COc1ccc(CN2CCN(C)c3ccc(C(=O)NO)cc3C2)cc1,> 500
5,COc1ccc(CN2CC(=O)Nc3ccc(C(=O)NO)cc3C2)cc1,100 to 500
6,COc1ccc(CN2CCOc3cc(C(=O)NO)cnc3C2)cc1,100 to 500
7,COc1ccc(CN2CCOc3nc(C(=O)NO)ccc3C2)cc1,> 500
8,COc1ccc(CN2CCOc3ccc(C(=O)NO)cc3C2)cc1,> 500
9,COc1ccc(CN2CCOc3cc(C(=O)NO)ccc3C2)cc1,100 to 500
10,COc1ccc(CN2CCNc3ccc(C(=O)NO)cc3C2)cc1,> 500
11,COc1ccc(CN2CCOc3ccc(C(=O)NO)cc3C2=O)cc1,> 500
12,COc1ccc(CN2CCOc3cc(C(=O)NO)ccc3C2=O)cc1,100 to 500
13,O=C1CN(Cc2cn3ccccc3n2)Cc2cc(C(=O)NO)ccc2N1,≤ 100
14,O=C1CN(Cc2cccc3ccccc23)Cc2cc(C(=O)NO)ccc2N1,≤ 100
15,COc1ccc(NC(=O)N2CCOc3ccc(C(=O)NO)cc3C2)cc1,> 500
16,COc1ccc(NC(=O)N2CCOc3cc(C(=O)NO)cnc3C2)cc1,≤ 100
17,COc1ccc(NC(=O)N2CCOc3cc(C(=O)NO)ccc3C2)cc1,100 to 500
18,C[C@@H]1COc2cc(C(=O)NO)ccc2CN1c1ccccc1,100 to 500
19,COc1ccc(S(=O)(=O)N2Cc3ccc(C(=O)NO)cc3OC[C@H]2C)cc1,> 500
20,COc1ccc(CN2Cc3ccc(C(=O)NO)cc3OC[C@H]2C)cc1,≤ 100
21,COc1ccc(NC(=O)N2Cc3ccc(C(=O)NO)cc3OC[C@H]2C)cc1,100 to 500
22,C[C@H]1COc2cc(C(=O)NO)ccc2CN1c1ccccc1,≤ 100
23,COc1ccc(S(=O)(=O)N2Cc3ccc(C(=O)NO)cc3OC[C@@H]2C)cc1,100 to 500
24,COc1ccc(CN2Cc3ccc(C(=O)NO)cc3OC[C@@H]2C)cc1,≤ 100
25,COc1ccc(NC(=O)N2Cc3ccc(C(=O)NO)cc3OC[C@@H]2C)cc1,≤ 100
26,COc1ccc(CN2CCOc3ccc(C(=O)NO)cc3C2C)cc1 (centres unmarked),> 500
